Key:
gubra DIO rats = conditions: gubra choice DIO model; cited from earlier work
in vivo [1] = experiment: in vivo; design: species or system Crl:CD1(ICR) mice; conditions: mouse, sc
in vivo [2] = experiment: in vivo; design: species or system sprague dawley rats; conditions: rat, sc; for AUC(0-t) / CL/F / Cmax / Tmax / half-life: female, Sprague Dawley
[3] = both, Crl:CD1(ICR) (CD-1), 625 nmol/kg

Compound | cumulative chow intake compared to controls (gubra DIO rats) | decrease of cumulative gubra diet intake compared to controls (gubra DIO rats) | AUC(0-inf) (in vivo [1]; [3]) [µM·h] | CL/F (in vivo [1]; [3]) [mL/min/kg] | Cmax (in vivo [1]; [3]) [nM] | Tmax (in vivo [1]; [3]) [h] | half-life (in vivo [1]; [3]) [h] | T1/2 (elimination half-life) (in vivo [1]) | AUC(0-t) (in vivo [2]; 31 nmol/kg) [µM·h] | CL/F (in vivo [2]; 31 nmol/kg) [mL/min/kg] | Cmax (in vivo [2]; 31 nmol/kg) [nM] | Tmax (in vivo [2]; 31 nmol/kg) [h] | half-life (in vivo [2]; 31 nmol/kg) [h] | AUC(0-t) (in vivo [2]; 104 nmol/kg) [µM·h] | CL/F (in vivo [2]; 104 nmol/kg) [mL/min/kg] | Cmax (in vivo [2]; 104 nmol/kg) [nM] | Tmax (in vivo [2]; 104 nmol/kg) [h] | half-life (in vivo [2]; 104 nmol/kg) [h] | T1/2 (in vivo [2]) [h]
liraglutide (HAEGTFTSDVSSYLEGQAAKEFIAWLVRGRG; chains of the INN, looked up) | approximately doubled | approximately 60% | – | – | – | – | – | – | – | – | – | – | – | – | – | – | – | – | –
CC[C@H](C)[C@H](NC(=O)[C@H](CC(C)C)NC(=O)[C@H](Cc1c[nH]c2ccccc12)NC(=O)[C@H](CCC(N)=O)NC(=O)[C@@H](NC(=O)[C@H](Cc1ccccc1)NC(=O)[C@H](C)NC(=O)[C@H](CCCCNC(=O)COCCOCCNC(=O)COCCOCCNC(=O)CC[C@H](NC(=O)CCCCCCCCCCCCCCCCCCC(=O)O)C(=O)O)NC(=O)[C@H](CCC(N)=O)NC(=O)[C@H](C)NC(=O)[C@@H](NC(=O)[C@H](CCCCN)NC(=O)[C@H](CC(=O)O)NC(=O)[C@H](CC(C)C)NC(=O)C(C)(C)NC(=O)[C@@H](NC(=O)[C@H](CO)NC(=O)[C@H](Cc1ccc(O)cc1)NC(=O)[C@H](CC(=O)O)NC(=O)[C@H](CO)NC(=O)[C@@H](NC(=O)[C@H](Cc1ccccc1)NC(=O)[C@@H](NC(=O)CNC(=O)[C@H](CCC(=O)O)NC(=O)C(C)(C)NC(=O)[C@@H](N)Cc1ccc(O)cc1)[C@@H](C)O)[C@@H](C)O)[C@@H](C)CC)[C@@H](C)CC)C(C)C)C(=O)N[C@@H](C)C(=O)NCC(=O)NCC(=O)N1CCC[C@H]1C(=O)N[C@@H](CO)C(=O)N[C@@H](CO)C(=O)NCC(=O)N[C@@H](C)C(=O)N1CCC[C@H]1C(=O)N1CCC[C@H]1C(=O)N1CCC[C@H]1C(=O)N[C@@H](CO)C(N)=O [tirzepatide] | – | – | 71.7 | 0.145 | 2540 | 12 | 11.9 | approximately 12 hr | 3.74 | 0.139 | 127 | 12 | 9.3 | 10 | 0.172 | 310 | 12 | 10.3 | 10.3

— article PMC10362946 (Diabetes, obesity & metabolism, 2022)
